Results published in EP3840748B1, “SUBSTITUTED IMIDAZOLES FOR THE INHIBITION OF TGF-BETA AND METHODS OF TREATMENT” (Clavius Pharmaceuticals, LLC, priority 2018, dated 2020).

Legend:
[1] = tested on: TGF-beta 1 stimulated SBE-bla HEK 293T; assay: GeneBLAzer beta-lactamase (bla) reporter, TGF-beta 1 stimulated SBE-bla HEK 293T cell-based assay (ThermoFisher SelectScreen); settings: Homo sapiens; SBE-bla HEK 293T cells; 30 minutes pre-incubation with inhibitor; TGF-beta 1 0.03 nM, 5 hours; inhibitor 10,000nM to 0.316nM; read-out: Cells (SBE_HEK293T) IC50
From the text: (§1) Table 2, below, describes the results of assays carried out on some compounds provided by the present disclosure. Exemplified compounds are confirmed to inhibit ALK5 activity in enzyme and cellular assays in the following assay systems conducted by ThermoFisher in Madison, WI according to their commercially available protocols.
ThermoFisher SelectScreen™ Cell-based Pathway Profiling Service GeneBLAzer Beta-lactamase (bla) Reporter Technology - TGF-beta 1 stimulated SBE-bla HEK 293T Cell-based Assay
SBE-bla HEK 293T cells are thawed and re-suspended in Assay Media (OPTI-MEM, 0.5% dialyzed FBS, 0.1 mM NEAA, 1 mM Sodium Pyruvate, 100 U/mL/100 µg/mL Pen/Strep) to a concentration of 625,000 cells/mL. 32 µL of cell suspension (20,000 cells) is added to each well of a 384-well Poly-D-Lysine assay plate. Cells in Assay Media are incubated for 16-24 hours in the plate at 37°C/5% CO2 in a humidified incubator. 4 µL of a 10X serial dilution of ALK5 inhibitors (10x = 100,000-3.16 nM) is added to appropriate wells of the plate and pre-incubated at 37°C/5% CO2 in a humidified incubator with cells for 30 minutes. Final concentration of inhibitor ranged from 10,000nM to 0.316nM. 4 µL of 10X TGF-beta 1 (final concentration of 0.03 nM) is added to wells containing the inhibitors. The plate is incubated for 5 hours at 37°C/5% CO2 in a humidified incubator. 8 µL of 1 µM Substrate Loading Solution is added to each well and the plate is incubated for 2 hours at room temperature before being read on a fluorescence plate reader. Percent inhibition is determined compared to DMSO only control (maximal TGF-beta 1 stimulation) and sigmoidal dose response curve fit yielded IC50 values as indicated in Table 2. TABLE 2: Biological activity assay results

TGFBR1 (ALK5) = target: T1, TGFBR1 (ALK5) (Homo sapiens, UniProt P36897); assay: LanthaScreen Eu Kinase Binding Assay TGFBR1 (ALK5) (ThermoFisher SelectScreen); settings: ALK5 5 nM, Tracer #178 5 nM, Eu-anti-GST antibody 2 nM, 1 hour at room temperature, 1% DMSO; read-out: TβRI (ALK5) Binding IC50
T1 sequence (P36897 34-503): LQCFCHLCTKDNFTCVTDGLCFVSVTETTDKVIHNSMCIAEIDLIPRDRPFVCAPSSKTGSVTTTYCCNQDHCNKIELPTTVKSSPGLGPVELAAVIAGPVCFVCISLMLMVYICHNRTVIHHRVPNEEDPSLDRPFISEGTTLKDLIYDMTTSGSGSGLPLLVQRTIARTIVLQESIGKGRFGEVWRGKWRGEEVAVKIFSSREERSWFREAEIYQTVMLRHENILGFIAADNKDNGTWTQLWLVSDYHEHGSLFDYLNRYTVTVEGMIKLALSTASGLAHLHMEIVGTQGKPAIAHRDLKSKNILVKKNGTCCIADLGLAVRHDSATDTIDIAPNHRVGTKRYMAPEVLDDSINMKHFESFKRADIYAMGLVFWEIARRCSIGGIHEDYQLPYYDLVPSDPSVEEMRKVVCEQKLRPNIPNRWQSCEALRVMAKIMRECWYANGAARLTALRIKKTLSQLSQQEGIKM
From the text: as §1
ThermoFisher SelectScreen™ Biochemical Kinase Profiling Service, LanthaScreen™Eu Kinase Binding Assay TGFBR1 (ALK5)
Exemplified compounds are screened in 1% DMSO (final concentration) by 3-fold serial dilutions from 10,000 nM to 0.316 nM or at single concentrations of 10,000, 1000 and 100 nM according to the following protocol. To low volume, white 384-well plates (Greiner Cat#784207) add 160 nL 100x compound in 100% DMSO, 3.84 uL kinase buffer (50 mM HEPES, pH 7.5, 0.01% BRIJ-35, 10 mM MgCl2, 1 mM EGTA), 8 uL 2x kinase/antibody mixture in kinase buffer (final ALK5 concentration of 5 nM; final Eu-anti-GST antibody concentration of 2 nM), 4 uL 4x Tracer #178 in kinase buffer (final concentration of 5 nM). Gently shake the plates for 30 seconds and incubate at room temperature for 1 hour before reading fluorescence on a plate reader. Percent inhibition is determined compared to DMSO only control (maximal ALK5 tracer binding) and sigmoidal dose response curve fit yielded IC50 values as indicated in Table 2.

- IC50 (TGFBR1 (ALK5)): 0.0072 µM
SMILES: CC(C)n1ccc(-c2nc3occn3c2-c2ccc3ncn(C)c(=O)c3c2)n1 [Compound 25, 6-{7-(1-Isopropyl-1H-pyrazol-3-yl)-4-oxa-1,6-diazabicyclo[3.3.0]octa-2,5,7-trien-8-yl}-3-methyl-3H-quinazolin-4-one]
- IC50 [1]: 0.238 µM
